Measurements taken from patent US5393897A, “Isolation and structure of spongistatins 5,7,8 and 9” (Arizona Board of Regents acting on behalf of Arizona State …, priority 1993, dated 1995).
Where two headings read alike, the source gives them in different places.

Tests used:
Assay type in all cases: cell-based
[1] = system: 60 human tumor cell lines; assay: NCI in vitro primary screen, panel of 60 human tumor cell lines; details: for Compare Correlation Coefficient: TGI-centered mean graph profiles, spongistatin 1 as seed; for correlation of mean-graph fingerprint with microtubule-interactive antimitotics: pattern-recognition analyses, data not shown; for negative log molar TGI50: various human cancer cell lines
Text: (§1) Only two hundred years ago, many diseases ravaged humankind. Many of these diseases now have been controlled or eradicated. In the development of the means to treat or control these diseases, work with the appropriate common experimental animals was of critical importance. With the various types of cancers, and with the HIV virus, such work is presently ongoing. The research for the treatment of various types of cancer is coordinated in the United States by the National Cancer Institute (NCI). NCI, as a government entity, has been charged with assisting anti-cancer research. To establish whether a substance has anti-cancer activity, NCI has established a variety of protocols, one of which involves testing the candidate substance against a cell line panel containing 60 human tumor cell lines. This protocol has been verified and is generally accepted throughout the scientific community. This protocol and the established statistical means of evaluating the results obtained therefrom have been fully described in the literature. See Principles & Practice of Oncology PPO Updates, Volume 3, Number 10, October 1989, by Michael R. Boyd, M.D., Ph.D., for an in depth description of the test protocol. The statistical analysis is explained in "Display and Analysis of Patterns of Differential Activity of Drugs Against Human Tumor Cell Lines: Development of Means Graph and COMPARE Algorithm" Journal of the National Cancer Institute Reports Vol. 81, No. 14, Pg. 1088, Jul. 14, 1989, by K. D. Paull et al. Both of these references are incorporated herein by this reference thereto. The effectiveness and validity of the NCI in vitro protocol continues to be verified.
^a All compounds were tested in quadruplicate at five different con-
entire panel of 60 human tumor cell lines comprising the NCI
^c Correlation coefficients from the Compare pattern-recognition
algorithm were calculated by computer using the TGI-centered
mean graph profiles of differential cellular sensitivities to 1, and
5. The TGI mean graph profile of 1 was used as the benchmark or
"seed" for all of the comparisons.

[2] = system: ACHN; assay: NCI cell line panel; details: Homo sapiens, Renal Cancer; for GI50: read-out: Log10 GI50 (converted)
Text: as §1

[3] = system: CAKI-1; assay: NCI cell line panel; details: Homo sapiens, Renal Cancer, read-out: Log10 GI50 (converted)
Text: as §1

[4] = system: CCRF-CEM; assay: NCI cell line panel; details: Homo sapiens, Leukemia; for GI50: read-out: Log10 GI50 (converted)
Text: as §1

[5] = system: DU-145; assay: NCI cell line panel; details: Homo sapiens, Prostate Cancer, read-out: Log10 GI50 (converted)
Text: as §1

[6] = system: EKVX; assay: NCI cell line panel; details: Homo sapiens; for GI50: read-out: Log10 GI50 (converted)
Text: as §1

[7] = system: HCC-2998; assay: NCI cell line panel; details: Homo sapiens, Colon Cancer, read-out: Log10 GI50 (converted)
Text: as §1

[8] = system: HCT-15; assay: NCI cell line panel; details: Homo sapiens, Colon Cancer, read-out: Log10 GI50 (converted)
Text: as §1

[9] = system: HL-60(TB); assay: NCI cell line panel; details: Homo sapiens, Leukemia, read-out: Log10 GI50 (converted)
Text: as §1

[10] = system: HOP-62; assay: NCI cell line panel; details: Homo sapiens
Text: as §1

[11] = system: HS 578T; assay: NCI cell line panel; details: Homo sapiens; for GI50: read-out: Log10 GI50 (converted)
Text: as §1

[12] = system: LOX IMVI; assay: NCI cell line panel; details: Homo sapiens, Melanoma
Text: as §1

[13] = system: MCF7/ADR-RES; assay: NCI cell line panel; details: Homo sapiens, Breast Cancer; for GI50: read-out: Log10 GI50 (converted)
Text: as §1

[14] = system: MCF7; assay: NCI cell line panel; details: Homo sapiens, Breast Cancer; for IC (TGI): read-out: Log10 TGI (converted)
Text: as §1

[15] = system: MDA-MB-231/ATCC; assay: NCI cell line panel; details: Homo sapiens, Breast Cancer, read-out: Log10 GI50 (converted)
Text: as §1

[16] = system: NCI-H23; assay: NCI cell line panel; details: Homo sapiens, Non-Small Cell Lung Cancer, read-out: Log10 GI50 (converted)
Text: as §1

[17] = system: NCI-H322M; assay: NCI cell line panel; details: Homo sapiens, Non-Small Cell Lung Cancer; for GI50: read-out: Log10 GI50 (converted)
Text: as §1

[18] = system: OVCAR-4; assay: NCI cell line panel; details: Homo sapiens, Ovarian Cancer, read-out: Log10 GI50 (converted)
Text: as §1

[19] = system: OVCAR-5; assay: NCI cell line panel; details: Homo sapiens
Text: as §1

[20] = system: PC-3; assay: NCI cell line panel; details: Homo sapiens, Prostate Cancer; for GI50: read-out: Log10 GI50 (converted); for IC (TGI): read-out: Log10 TGI (converted)
Text: as §1

[21] = system: RPMI-8226; assay: NCI cell line panel; details: Homo sapiens, Leukemia, read-out: Log10 GI50 (converted)
Text: as §1

[22] = system: SF-268; assay: NCI cell line panel; details: Homo sapiens, CNS Cancer; for GI50: read-out: Log10 GI50 (converted); for IC (TGI): read-out: Log10 TGI (converted)
Text: as §1

[23] = system: SF-295; assay: NCI cell line panel; details: Homo sapiens
Text: as §1

[24] = system: SK-OV-3; assay: NCI cell line panel; details: Homo sapiens
Text: as §1

[25] = system: SN12C; assay: NCI cell line panel; details: Homo sapiens, Renal Cancer; for GI50: read-out: Log10 GI50 (converted)
Text: as §1

[26] = system: SNB-19; assay: NCI cell line panel; details: Homo sapiens; for IC (TGI): read-out: Log10 TGI (converted)
Text: as §1

[27] = system: SR; assay: NCI cell line panel; details: Homo sapiens, Leukemia, read-out: Log10 GI50 (converted)
Text: as §1

[28] = system: U251; assay: NCI cell line panel; details: Homo sapiens, U-251; CNS Cancer; read-out: Log10 GI50 (converted)
Text: as §1

[29] = Homo sapiens, NCI 60 cell line panel, read-out: panel mean GI50
[30] = Homo sapiens, panel mean graph midpoint, read-out: MG-MID, Log10 GI50 (converted)
[31] = Homo sapiens, quadruplicate, five concentrations, standard errors averaged less than 15% of means, read-out: Mean Panel GI50
[32] = read-out: Log10 TGI (converted)
[33] = read-out: Log10 GI50 (converted)

C=C(Cl)/C=C/C(O)CC(=C)CC1OC2C(C)C(OC(=O)CC3CC(O)CC4(CC(C)(O)CC(C=C5COC(C(C)C(=O)CC6CC(OC)CC7(CC(O)CC(/C=C\CCCC8OC(O)(CC(O)C8C)C2O)O7)O6)C5C)O4)O3)C1O (stereo not drawn) [spongistatin 5]
potency and specificity against NCI human cancer cell lines [1]: remarkably potent and specific | LC50 ([1]; Homo sapiens, read-out: MG-MID, Log10 LC50 (converted)): 79.4 nM | GI50 [1, 29]: 0.1 nM | GI50 [1, 30]: 0.0631 nM | IC (TGI) ([1]; Homo sapiens, panel mean graph midpoint, read-out: MG-MID, Log10 TGI (converted)): 13.8 nM | GI50 [1, 31]: 0.123 nM | Compare Correlation Coefficient [1]: 0.92 | correlation of mean-graph fingerprint with microtubule-interactive antimitotics [1]: closely correlated | negative log molar TGI50 [1]: approximately ten | GI50 [2]: 0.562 nM | GI50 [3]: 0.0575 nM | GI50 [4]: 0.017 nM | IC (TGI) [4, 32]: 4.17 nM | GI50 [5]: 0.024 nM | GI50 [6]: 0.182 nM | GI50 [7]: 0.0631 nM | GI50 [8]: 0.0631 nM | GI50 [9]: 0.0129 nM | GI50 ([10]; HOP-62, Non-Small Cell Lung Cancer, read-out: Log10 GI50 (converted)): 0.151 nM | GI50 ([11]; Breast Cancer): 0.437 nM | IC (TGI) [12, 32]: 11 nM | GI50 [13]: 0.912 nM | IC (TGI) [14]: 39.8 nM | GI50 [15]: 0.251 nM | GI50 [16]: 0.0347 nM | GI50 [17]: 0.0891 nM | GI50 [18]: 14.1 nM | GI50 ([19]; OVCAR-5, read-out: Log10 GI50 (converted)): 4.07 nM | GI50 [20]: 0.0151 nM | IC (TGI) [20]: 100 nM | GI50 [21]: 0.0129 nM | GI50 [22]: 0.151 nM | IC (TGI) [22]: 100 nM | GI50 ([23]; SF-295, CNS Cancer, read-out: Log10 GI50 (converted)): 0.011 nM | GI50 ([24]; SK-OV-3, Ovarian Cancer, read-out: Log10 GI50 (converted)): 0.191 nM | GI50 [25]: 0.0603 nM | GI50 ([26]; SNB-19, read-out: Log10 GI50 (converted)): 0.407 nM | IC (TGI) ([26]; SNB-19, CNS Cancer): 100 nM | GI50 [27]: 0.012 nM | GI50 [28]: 0.0617 nM

C=C/C=C/C(O)CC(=C)CC1OC2C(C)C(OC(=O)CC3CC(O)CC4(CC(C)(O)CC(C=C5COC(C(C)C(=O)CC6CC(OC)CC7(CC(O)CC(/C=C\CCCC8OC(O)(CC(O)C8C)C2O)O7)O6)C5C)O4)O3)C1O (stereo not drawn) [spongistatin 7]
potency and specificity against NCI human cancer cell lines [1]: remarkably potent and specific | GI50 [1, 29]: 0.1 nM | GI50 [1, 30]: 1.17 nM | GI50 [1, 31]: 1.01 nM | Compare Correlation Coefficient [1]: 0.81 | correlation of mean-graph fingerprint with microtubule-interactive antimitotics [1]: closely correlated | negative log molar TGI50 [1]: approximately ten | GI50 [2]: 10 nM | IC (TGI) [2, 32]: 100 nM | GI50 [3]: 12 nM | GI50 [4]: 0.24 nM | GI50 [5]: 1.58 nM | GI50 ([6]; Non-Small Cell Lung Cancer): 41.7 nM | IC (TGI) ([6]; Non-Small Cell Lung Cancer, read-out: Log10 TGI (converted)): 100 nM | GI50 [7]: 1.41 nM | GI50 [8]: 6.17 nM | GI50 [9]: 0.0794 nM | GI50 ([10]; HOP-62, read-out: Log10 GI50 (converted)): 1 nM | IC (TGI) ([11]; Breast Cancer, read-out: Log10 TGI (converted)): 100 nM | GI50 [11]: 1.29 nM | GI50 [12, 33]: 0.468 nM | GI50 [13]: 77.6 nM | IC (TGI) [13, 32]: 100 nM | GI50 [14, 33]: 0.17 nM | IC (TGI) [14]: 100 nM | GI50 [15]: 1.58 nM | GI50 [16]: 0.708 nM | GI50 [17]: 3.24 nM | IC (TGI) [17, 32]: 100 nM | GI50 [18]: 24 nM | GI50 ([19]; OVCAR-5, Ovarian Cancer, read-out: Log10 GI50 (converted)): 20.9 nM | GI50 [20]: 0.372 nM | IC (TGI) [20]: 52.5 nM | GI50 [21]: 0.708 nM | GI50 [22]: 6.31 nM | IC (TGI) [22]: 100 nM | GI50 ([23]; SF-295, read-out: Log10 GI50 (converted)): 0.407 nM | GI50 ([24]; SK-OV-3, read-out: Log10 GI50 (converted)): 1 nM | GI50 [25]: 2.19 nM | IC (TGI) [25, 32]: 100 nM | GI50 ([26]; SNB-19, CNS Cancer, read-out: Log10 GI50 (converted)): 8.32 nM | IC (TGI) ([26]; SNB-19, CNS Cancer): 100 nM | GI50 [27]: 0.0912 nM | GI50 [28]: 0.759 nM
